A word on the EC50: it is the concentration at which the effect is half-maximal. Low readings indicate higher potency in that assay, high ones lower potency in that assay. As usually defined, the IC50 is the midpoint of a concentration-inhibition curve. High values mean weaker potency, low ones greater potency.

Experiment [1] deals with human acute monocytic leukemia cell line MV-4-11. Kind of experiment: Assay 2: cell proliferation assay (ATP quantitation, CellTiter-Glo), MV-4-11. As to conditions: MV-4-11 cells. It is filed as cell-based. The method, boiled down:
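MV-4-11 cells, 1.67×10^4 per well in medium with 10% FBS, were exposed to compound for 72 h at 37° C., 5% CO2; HL-60 cells served as toxicity control. Proliferation read as ATP content by CellTiter-Glo luminescence.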
Background: ATP-based viability assays read luminescence as a measure of living cells.

Experiment [2] deals with T1, biotinylated wild-type menin and MLL-AF9 fusion protein (menin/MLL binding) (Homo sapiens, UniProt O00255).
T1 construct: made in house; host or cells: menin: E. coli; MLL-AF9-FLAG: HEK293 cells, used as cleared lysate
T1 sequence (O00255 1-610): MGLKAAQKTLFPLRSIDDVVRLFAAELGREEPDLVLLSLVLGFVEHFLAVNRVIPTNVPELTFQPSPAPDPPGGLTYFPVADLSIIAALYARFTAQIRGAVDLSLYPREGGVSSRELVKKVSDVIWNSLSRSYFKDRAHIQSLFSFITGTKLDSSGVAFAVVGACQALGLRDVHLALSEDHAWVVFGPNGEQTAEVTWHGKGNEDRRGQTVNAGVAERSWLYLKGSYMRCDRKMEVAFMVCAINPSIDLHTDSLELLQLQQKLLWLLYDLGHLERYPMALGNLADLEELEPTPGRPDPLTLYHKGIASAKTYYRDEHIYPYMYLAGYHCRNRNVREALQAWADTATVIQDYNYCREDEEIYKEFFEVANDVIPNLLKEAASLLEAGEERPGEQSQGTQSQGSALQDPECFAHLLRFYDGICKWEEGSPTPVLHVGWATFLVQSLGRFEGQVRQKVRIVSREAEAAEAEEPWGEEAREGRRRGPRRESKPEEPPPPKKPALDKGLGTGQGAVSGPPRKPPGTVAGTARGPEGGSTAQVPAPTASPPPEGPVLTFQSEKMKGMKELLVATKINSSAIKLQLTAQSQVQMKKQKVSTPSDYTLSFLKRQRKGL
In words: Assay 1: menin/MLL binding AlphaLISA assay, wild-type menin. As to conditions: Table 30; column head does not say wild-type or mutated menin. The method, boiled down:
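Compound was preincubated 30 min at room temperature with biotinylated menin (5 nM) and MLL-AF9-FLAG lysate from HEK293 cells, pH 7.4 buffer with 5% DMSO and DTT. Bead-based Alpha signal after 60 min with streptavidin donor and anti-FLAG acceptor beads; four-parameter logistic fit gave IC50.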

`CC(C)N(C)C(=O)c1cc(F)ccc1Oc1cncnc1N1CCC2(CCN(Cc3ccc4c(c3)NC(=O)C4(C)C#N)C2)C1` (stereo not shown) [Example 125, 2-((4-(7-((3-cyano-3-methyl-2-oxoindolin-6-yl)methyl)-2,7-diazaspiro [4.4]nonan-2-yl)pyrimidin-5-yl)oxy)-5-fluoro-N-isopropyl-N-methylbenzamide] yielded an EC50 in experiment [1] (Homo sapiens, MV4-11, 72 h) of less than 0.1 µM. In addition, in experiment [2], the IC50 was less than 0.1 µM.

In the case of `Cc1ncc(Oc2ccc(F)cc2-c2ccnn2C(C)C)c(N2CCC3(CCN(Cc4ccc5[nH]c(=O)[nH]c5c4)C3)C2)n1` (stereo not shown) [Example 126, 5-((7-(5-(4-fluoro-2-(1-isopropyl-1H-pyrazol-5-yl)phenoxy)-2-methylpyrimidin-4-yl)-2,7-diazaspiro[4.4]nonan-2-yl)methyl)-1,3-dihydro-2H-benzo[d]imidazol-2-one], in experiment [1] (Homo sapiens, MV4-11, 72 h), the EC50 lay within 0.1 to 1 µM. The IC50 in experiment [2] was less than 0.1 µM.

The compound `CC(C)N(C)C(=O)c1cc(F)ccc1Oc1cncnc1N1CCC2(CN(C(=O)Cc3ccc(C#N)cc3)C2)C1` [Example 127, 2-((4-(2-(2-(4-cyanophenyl)acetyl)-2,6-diazaspiro[3.4]octan-6-yl)pyrimidin-5-yl)oxy)-5-fluoro-N-isopropyl-N-methylbenzamide] returned an EC50 in experiment [1] (Homo sapiens, MV4-11, 72 h) of 0.1 to 1 µM. The IC50 in experiment [2] was less than 0.1 µM.

Regarding `CCn1c(=O)[nH]c2cc(CN3CCC4(CCN(c5ncncc5Oc5ccc(F)cc5C(=O)N(C)C(C)C)C4)C3)ccc21` (stereo not shown) [Example 128, 2-((4-(7-((1-ethyl-2-oxo-2,3-dihydro-1H-benzo[d]imidazol-5-yl)methyl)-2,7-diazaspiro[4.4]nonan-2-yl)pyrimidin-5-yl)oxy)-5-fluoro-N-isopropyl-N-methylbenzamide], the EC50 in experiment [1] (Homo sapiens, MV4-11, 72 h) fell in the range of 0.1 to 1 µM. In experiment [2], this compound showed an IC50 of less than 0.1 µM.

In experiment [1] (Homo sapiens, MV4-11, 72 h), `COCCn1c(=O)[nH]c2cc(CN3CCC4(CCN(c5ncncc5Oc5ccc(F)cc5C(=O)N(C)C(C)C)C4)C3)ccc21` (stereo not shown) [Example 129, 5-fluoro-N-isopropyl-2-((4-(7-((1-(2-methoxyethyl)-2-oxo-2,3-dihydro-1H-benzo[d]imidazol-5-yl)methyl)-2,7-diazaspiro[4.4]nonan-2-yl)pyrimidin-5-yl)oxy)-N-methyl-benzamide] yielded an EC50 of 0.1 to 1 µM. Also, in experiment [2], the IC50 is less than 0.1 µM.

`CC(C)c1ncncc1-c1cc(F)ccc1Oc1cncnc1N1CCC2(CN(C(=O)Cc3ccc(C#N)cc3)C2)C1` [Example 130, 4-(2-(6-(5-(4-fluoro-2-(4-isopropylpyrimidin-5-yl)phenoxy)pyrimidin-4-yl)-2,6-diazaspiro[3.4]octan-2-yl)-2-oxoethyl)benzonitrile] came in with an EC50 in experiment [1] (Homo sapiens, MV4-11, 72 h) of 0.1 to 1 µM. Moreover, in experiment [2], the IC50 was less than 0.1 µM.

Take `COCCn1c(=O)[nH]c2cc(CN3CCC4(CCN(c5ncncc5Oc5ccc(F)cc5-c5cncnc5C(C)C)C4)C3)ccc21` (stereo not shown) [Example 131, 5-((7-(5-(4-fluoro-2-(4-isopropylpyrimidin-5-yl)phenoxy)pyrimidin-4-yl)-2,7-diazaspiro[4.4]nonan-2-yl)methyl)-1-(2-methoxyethyl)-1,3-dihydro-2H-benzo[d]imidazol-2-one]: the EC50 in experiment [1] (Homo sapiens, MV4-11, 72 h) is less than 0.1 µM. For the same compound, the half-inhibitory concentration (IC50) in experiment [2] was less than 0.1 µM.

Take `COc1ccc(CC(=O)N2CC3(C2)CN(c2ncncc2Oc2ccc(F)cc2-c2cncnc2C(C)C)C3)cn1` [Example 132, 1-(6-(5-(4-fluoro-2-(4-isopropylpyrimidin-5-yl)phenoxy)pyrimidin-4-yl)-2,6-diazaspiro[3.3]heptan-2-yl)-2-(6-methoxypyridin-3-yl)ethan-1-one]: in experiment [1] (Homo sapiens, MV4-11, 72 h), the EC50 lay in the range of 0.1 to 1 µM. The compound further registered an IC50 in experiment [2] of less than 0.1 µM.

Take `CC(C)c1ncncc1-c1cc(F)ccc1Oc1cncnc1N1CC2(CN(C(=O)Cc3ccc4c(c3)NC(=O)C4(C)C)C2)C1` [Example 133, 6-(2-(6-(5-(4-fluoro-2-(4-isopropylpyrimidin-5-yl)phenoxy)pyrimidin-4-yl)-2,6-diazaspiro[3.3]heptan-2-yl)-2-oxoethyl)-3,3-dimethylindolin-2-one]: in experiment [1] (Homo sapiens, MV4-11, 72 h), the EC50 fell in the range of 0.1 to 1 µM. In experiment [2], this compound displayed an IC50 of less than 0.1 µM.

`CC(C)N(C)C(=O)c1cc(F)ccc1Oc1cncnc1N1CC2(CN(CC[C@H]3CC[C@H](NC(=O)OC(C)(C)C)CC3)C2)C1` [Example 134, tert-butyl ((1r,4r)-4-(2-(6-(5-(4-fluoro-2-(isopropyl(methyl)carbamoyl)phenoxy)pyrimidin-4-yl)-2,6-diazaspiro[3.3]heptan-2-yl)ethyl)cyclohexyl) carbamate] registered a concentration giving a half-maximal response (EC50) in experiment [1] (Homo sapiens, MV4-11, 72 h) of 0.1 to 1 µM. Also, the IC50 in experiment [2] is less than 0.1 µM.

In turn, `CC(C)N(C)Cc1cc(F)ccc1Oc1cncnc1N1CCC2(CCN(Cc3ccc4[nH]c(=O)[nH]c4c3)C2)C1` (stereo not shown) [Example 135, 5-((7-(5-(4-fluoro-2-((isopropyl(methyl)amino)methyl)phenoxy)pyrimidin-4-yl)-2,7-diazaspiro[4.4]nonan-2-yl)methyl)-1,3-dihydro-2H-benzo[d]imidazol-2-one] yielded an EC50 in experiment [1] (Homo sapiens, MV4-11, 72 h) of no less than 1 µM. The compound further gave an IC50 in experiment [2] of less than 0.1 µM.

Compound `CCN(C(=O)C(C)C)c1cc(F)ccc1Oc1cncnc1N1CC2(CCN(CC(C)C)C2)C1` [Example 136, N-ethyl-N-(5-fluoro-2-((4-(6-isobutyl-2,6-diazaspiro[3.4]octan-2-yl)pyrimidin-5-yl)oxy)phenyl)iso-butyramide] registered an EC50 in experiment [1] (Homo sapiens, MV4-11, 72 h) of 0.1 to 1 µM. Moreover, the 50% inhibitory concentration (IC50) in experiment [2] is less than 0.1 µM.

`CCN(C(=O)C(C)C)c1cc(F)ccc1Oc1cncnc1N1CC2(CCN(CC3CCC(F)(F)CC3)C2)C1` [Example 137, N-(2-((4-(6-((4,4-difluorocyclohexyl)methyl)-2,6-diazaspiro[3.4]octan-2-yl)pyrimidin-5-yl)oxy)-5-fluorophenyl)-N-ethylisobutyramide]: in experiment [1] (Homo sapiens, MV4-11, 72 h), the EC50 is 0.1 to 1 µM. Besides, the IC50 in experiment [2] was less than 0.1 µM.

For the compound `CC(C)C(=O)N(C)c1cc(F)ccc1Oc1cncnc1N1CC2(CN(CC[C@H]3CC[C@H](NC(=O)OC(C)(C)C)CC3)C2)C1` [Example 138, tert-butyl ((1r,4r)-4-(2-(6-(5-(4-fluoro-2-(N-methyl-isobutyramido)phenoxy)pyrimidin-4-yl)-2,6-diazaspiro [3.3]heptan-2-yl)ethyl)cyclohexyl)carbamate], the EC50 in experiment [1] (Homo sapiens, MV4-11, 72 h) was less than 0.1 µM. The same compound showed an IC50 in experiment [2] of less than 0.1 µM.

For the compound `CC(C)c1ncncc1-c1cc(F)ccc1Oc1cncnc1N1CC2(CC(N3CCc4cc(F)ccc4C3)CO2)C1` (stereo not shown) [Example 139, 2-(5-(4-fluoro-2-(4-isopropylpyrimidin-5-yl)phenoxy)pyrimidin-4-yl)-7-(6-fluoro-3,4-dihydroisoquinolin-2(1H)-yl)-5-oxa-2-azaspiro[3.4]octane], in experiment [1] (Homo sapiens, MV4-11, 72 h), the EC50 is 0.1 to 1 µM. Besides, the IC50 in experiment [2] is less than 0.1 µM.

For `CC(C)c1ncncc1-c1cc(F)ccc1Oc1cncnc1N1CC2(CC(NCC3CCC(C)(C#N)CC3)C2)C1` (stereo not shown) [Example 140, 4-(((2-(5-(4-fluoro-2-(4-isopropylpyrimidin-5-yl)phenoxy)pyrimidin-4-yl)-2-azaspiro[3.3]heptan-6-yl)amino)methyl)-1-methylcyclohexane-1-carbonitrile], in experiment [1] (Homo sapiens, MV4-11, 72 h), the EC50 lay within 0.1 to 1 µM. Further, the IC50 in experiment [2] was less than 0.1 µM.

The compound `CC(C)c1ncncc1-c1cc(F)ccc1Oc1cncnc1N1CC2(CC(NC(C)c3ccc(C#N)cc3)C2)C1` (stereo not shown) [Example 141, 4-(1-((2-(5-(4-fluoro-2-(4-isopropylpyrimidin-5-yl)phenoxy)pyrimidin-4-yl)-2-azaspiro[3.3]heptan-6-yl)amino)ethyl)benzo-nitrile] showed an EC50 in experiment [1] (Homo sapiens, MV4-11, 72 h) of 0.1 to 1 µM. For the same compound, the IC50 in experiment [2] was less than 0.1 µM.

Compound `CC(C)N(C)C(=O)c1cc(F)ccc1Oc1cncnc1N1CCC2(CCN(Cc3ccc(N4CCOC4=O)cc3)C2)C1` (stereo not shown) [Example 142, 5-fluoro-N-isopropyl-N-methyl-2-((4-(7-(4-(2-oxooxazolidin-3-yl)benzyl)-2,7-diazaspiro[4.4]nonan-2-yl)pyrimidin-5-yl)oxy)benzamide] registered an EC50 in experiment [1] (72 h) of no less than 1 µM. The compound also had an IC50 in experiment [2] of less than 0.1 µM.

For `CC(=O)N[C@H]1CC[C@H](CCN2CC3(C2)CN(c2ncncc2Oc2ccc(F)cc2-c2ccc(C#N)cc2C2CC2)C3)CC1` [Example 143, N-((1r,4r)-4-(2-(6-(5-((4′-cyano-2′-cyclopropyl-5-fluoro-[1,1′-biphenyl]-2-yl)oxy)pyrimidin-4-yl)-2,6-diazaspiro[3.3]heptan-2-yl)ethyl)cyclohexyl) acetamide], the EC50 in experiment [1] (Homo sapiens, MV4-11, 72 h) was no less than 1 µM. Moreover, in experiment [2], the concentration for half-maximal inhibition (IC50) was less than 0.1 µM.

The compound `COC(=O)N(c1cc(F)ccc1Oc1cncnc1N1CCC2(CCN(Cc3ccc4[nH]c(=O)[nH]c4c3)C2)C1)C(C)C` (stereo not shown) [Example 144, methyl (5-fluoro-2-((4-(7-((2-oxo-2,3-dihydro-1H-benzo[d]imidazol-5-yl)methyl)-2,7-diazaspiro[4.4]nonan-2-yl)pyrimidin-5-yl)oxy)phenyl)(iso-propyl)carbamate] registered an EC50 in experiment [1] (Homo sapiens, MV4-11, 72 h) of less than 0.1 µM. The compound also came in with an IC50 in experiment [2] of less than 0.1 µM.

These data come from patent publication US12312359B2 (Vitae Pharmaceuticals, LLC, priority 2016, dated 2025).
